Reference: patent US9550776B2, “Pyridinylpyrazoloquinoline compounds” (Eisai R&D Management Co., Ltd., priority 2013, dated 2017)

Tests used:
[1] = target: T1, human recombinant PDE9 protein (Homo sapiens, UniProt O76083); test: PDE9 inhibitory activity test ([3H]-cGMP hydrolysis); format: biochemical
T1 construct: made in house; host or cells: silkworm (pYNG vector, Katakura Industries)
Procedure: An hsPDE9A 1cDNA fragment was amplified by being based on a base sequence (Accession No.: AF048837) of the hsPDE9A1 registered on GenBank data base, and by using the following sequences (Hokkaido System Science Co., Ltd.) as a primer and Human hippocampus cDNA library (Clontech Laboratories, Inc.) as a template DNA, and using Pfu50 DNA polymerase (Invitrogen Corp.), and by a polymerase chain reaction (PCR) of the following condition.
The condition of PCR: [96° C., 5 min]×1 cycle, [(96° C., 10 sec), (57° C., 5 sec), (72° C., 2 min)]×30 cycles
The obtained hsPDE9A 1cDNA fragment was incorporated in a TOPO-TA cloning vector (Invitrogen Corp.), and the base sequence was checked; and thereafter, the resultant was transfected in a pcDNA 3.1/myc His-tag vector (Invitrogen Corp.) to thereby make a human PDE9 expression vector for mammal cells. The human PDE9 expression vector for mammal cells was transfected with transient expression to an HEK293 cell by using a LIPOFETAMINE 2000 Reagent (Gibco). It was confirmed by Western blot method that the PDE9A expressed in the HEK293 cell, and then, the human PDE9A 1cDNA fragment was transfected in a pYNG vector (Katakura Industries Co., Ltd.) to thereby make an expression vector for insect cells. A supernatant of homogenized silk worm in which a large amount of PDE9 was expressed was purified by an equilibrated Ni column using a buffer A (20 mmol/L Tris-HCl, pH: 8.0, 1 mmol/L DTT, 10 mmol/L imidazole). After 1 hour of mixing of the supernatant and the Ni column, cleaning was carried out using a buffer B (20 mmol/L Tris-HCl, pH: 8.0, 1 mmol/L DTT), and elution was carried out using a buffer C (20 mmol/L Tris-HCl, pH: 8.0, 1 mmol/L DTT, 100 mmol/L imidazole). An elution fraction was preparatively collected to thereby obtain a PDE9 enzyme solution.
To 100 μL of a buffer D (40 mmol/L Tris-HCl, pH: 7.4, 10 mmol/L MgCl2, 1 mM DTT, 2 μM cGMP) solution containing [^3H]-cGMP (0.5 μCi/mL), 10 μL of a compound solution for evaluation (a solution in which a compound was dissolved in DMSO and diluted so that the DMSO concentration became 5%) and 90 μL of a solution prepared by diluting the PDE9 enzyme solution prepared in the above with a buffer E (40 mmol/L Tris-HCl, pH: 7.4, 10 mmol/L MgCl2, 1 mM DTT, 1 mmol/L EGTA) were added under ice cooling. The resultant mixed solution was incubated at 30° C. for 10 min, and thereafter heated for 2 min in boiled water to stop the enzyme reaction of the PDE9. Then, the resultant was returned to room temperature; 50 μL of 5′-Nucleotidase (Biomol GmbH, 10 units/mL) was added thereto; and the resultant was incubated at 30° C. for 10 min to thereby convert [^3H]-5′-GMP formed in the previous reaction to [^3H]-guanosine. 500 μL of an anion exchange resin (Bio-Rad AGl-X2 resin, mesh size: 200-400, H2O:resin=2:1) was added to the resultant reaction liquid, and allowed to stand for 10 min, and thereafter centrifuged (2,000 rpm, 10 min); and a supernatant in which the [^3H]-guanosine was present was transferred to a LumaPlate (PerkinElmer, Inc.), and the radioactivity was measured by a TopCount NXT microplate scintillation and luminescence counter (PerkinElmer, Inc.).
The inhibition percentage of the evaluation compound was calculated using the following expression, taking the radioactivity of a control containing no evaluation compound to be (A), the radioactivity of a blank containing no enzyme to be (B), and the radioactivity of the evaluation compound to be (C). Inhibition percentage=100−{[(C)−(B)]/[(A)−(B)]}×100(%)
The IC50 value for PDE9 of the evaluation compound was determined from inhibition percentage for various concentrations.

cerebrospinal fluid cGMP = test: Effect on rodent cerebrospinal fluid cGMP; format: in vivo; details: rat (LE), 10 mg/kg p.o., sampling time 2 hr
Procedure: The test compound was administered to ICR male mice (Charles River Laboratories Japan, Inc.), Sprague-Dawley male rats (SD) (Charles River Laboratories Japan, Inc.) or Long-Evans male rats (LE) (Institute for Animal Reproduction), and the cerebrospinal fluid was then collected under pentobarbital anesthesia and stored at −20° C. cGMP in the cerebrospinal fluid was measured in accordance with the acetylation EIA procedure of cGMP EIA kit (GE Healthcare) or the non-acetylation procedure of cGMP EIA kit (Cayman). The result was an increase (C) in the amount of cGMP of the test compound-administered group (B) relative to the amount of cGMP of the vehicle-administered group (A), and was calculated using the following formula. cGMP increase(C)=[(B)−(A)]/(A)×100(%)

hippocampal cGMP = test: Effect on rodent hippocampal cGMP; format: in vivo; details: rat (LE), 10 mg/kg p.o., sampling time 2 hr
Procedure: The test compound was administered to Sprague-Dawley male rats (Charles River Laboratories Japan, Inc.) or Long-Evans male rats (Institute for Animal Reproduction) and then the animals were sacrificed with microwave under pentobarbital anesthesia, and the hippocampus was extracted. After measuring the wet weight, the hippocampus was frozen with liquid nitrogen and stored at −80° C. In the measurement of cGMP in the hippocampus, a 0.5 M perchloric acid/1 mM EDTA solution was added at 5% (w/v) based on the wet weight, and the mixture was homogenized. After the homogenization, the homogenate was centrifuged (10000 rpm, 15 min), and the supernatant was collected. The collected supernatant was neutralized with a 2 M potassium bicarbonate solution and centrifuged (13000 rpm, 10 min). The cGMP concentration in the supernatant was measured in accordance with the non-acetylation EIA procedure of cGMP EIA kit (GE Healthcare). The result was an increase (C) in the amount of cGMP of the test compound-administered group (B) relative to the amount of cGMP of the vehicle-administered group (A), and was calculated using the following formula. cGMP increase(C)=[(B)−(A)]/(A)×100(%)

T1 sequence (O76083 whole entry): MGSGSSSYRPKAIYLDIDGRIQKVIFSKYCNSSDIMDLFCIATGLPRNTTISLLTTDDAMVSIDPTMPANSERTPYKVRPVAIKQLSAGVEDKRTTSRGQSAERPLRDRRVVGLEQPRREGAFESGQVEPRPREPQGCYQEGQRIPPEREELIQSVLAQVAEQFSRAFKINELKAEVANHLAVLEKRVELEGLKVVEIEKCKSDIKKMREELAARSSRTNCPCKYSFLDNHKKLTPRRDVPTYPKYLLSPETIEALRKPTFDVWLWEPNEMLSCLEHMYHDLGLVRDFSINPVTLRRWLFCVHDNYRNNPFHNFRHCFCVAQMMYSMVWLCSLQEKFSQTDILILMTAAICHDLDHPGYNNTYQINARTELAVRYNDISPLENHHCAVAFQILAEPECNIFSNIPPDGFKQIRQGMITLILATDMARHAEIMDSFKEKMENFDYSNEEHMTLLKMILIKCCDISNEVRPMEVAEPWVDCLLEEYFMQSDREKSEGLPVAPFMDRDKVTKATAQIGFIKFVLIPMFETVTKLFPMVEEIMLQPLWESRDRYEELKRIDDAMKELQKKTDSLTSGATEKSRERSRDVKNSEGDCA

Compound | IC50 [1] | % CSF cGMP increase from vehicle control (cerebrospinal fluid cGMP) | % hippocampal cGMP increase from vehicle control (hippocampal cGMP)
COc1ncc(C)c(-c2ccc3c(c2)[nH]c(=O)c2cnn([C@H]4CC[C@H](OC)CC4)c23)c1C [Example 5b, 7-(2-methoxy-3,5-dimethylpyridin-4-yl)-1-(trans-4-methoxycyclohexyl)-1H-pyrazolo[4,3-c]quinoline-4(5H)-one] | 12.7 nM | 167% | 41%
(+)-7-(2-Methoxy-3,5-dimethylpyridin-4-yl)-1-((3R*,4R*)-3-methyltetrahydro-2H-pyran-4-yl)-1H-pyrazolo[4,3-c]quinoline-4(5H)-one [Example 3b] | 25.6 nM |  | 
(+)-7-(2-Methoxy-3,5-dimethylpyridin-4-yl)-1-((3R*,4S*)-3-methyltetrahydro-2H-pyran-4-yl)-1H-pyrazolo[4,3-c]quinoline-4(5H)-one [Example 4b] | 39.1 nM |  | 
(+)-7-(6-Methoxy-2,4-dimethylpyridin-3-yl)-1-((3R*,4S*)-3-methyltetrahydro-2H-pyran-4-yl)-1H-pyrazolo[4,3-c]quinoline-4(5H)-one [Example 1c] | 87.2 nM |  | 
(+)-7-(6-methoxy-2,4-dimethylpyridin-3-yl)-1-((3R*,4R*)-3-methyltetrahydro-2H-pyran-4-yl)-1H-pyrazolo[4,3-c]quinoline-4(5H)-one [Example 1a] | 48 nM |  | 
(−)-7-(6-Methoxy-2,4-dimethylpyridin-3-yl)-1-((3R*,4R*)-3-methyltetrahydro-2H-pyran-4-yl)-1H-pyrazolo[4,3-c]quinoline-4(5H)-one [Example 1b] | 13.6 nM | 147% | 44%

The next compounds have a lower IC50 [1] than those just listed; values first:

IC50 [1] | Compound | % CSF cGMP increase from vehicle control (cerebrospinal fluid cGMP) | % hippocampal cGMP increase from vehicle control (hippocampal cGMP)
12.3 nM | COc1nc(C)cc(C)c1-c1ccc2c(c1)[nH]c(=O)c1cnn([C@@H]3CCOC[C@@H]3C)c12 (single isomer, unassigned) [Example 2c, (+)-7-(2-Methoxy-4,6-dimethylpyridin-3-yl)-1-((3R*,4R*)-3-methyltetrahydro-2H-pyran-4-yl)-1H-pyrazolo[4,3-c]quinoline-4(5H)-one] |  | 
11.6 nM | (+)-7-(2-methoxy-4,6-dimethylpyridin-3-yl)-1-((3R*,4S*)-3-methyltetrahydro-2H-pyran-4-yl)-1H-pyrazolo[4,3-c]quinoline-4(5H)-one [Example 2a] |  | 
9.8 nM | COc1ncc(C)c(-c2ccc3c(c2)[nH]c(=O)c2cnn([C@H]4CC[C@@H](OC)CC4)c23)c1C [Example 5a, 7-(2-methoxy-3,5-dimethylpyridin-4-yl)-1-(cis-4-methoxycyclohexyl)-1H-pyrazolo[4,3-c]quinoline-4(5H)-one] |  | 
6.9 nM | (−)-7-(2-methoxy-3,5-dimethylpyridin-4-yl)-1-((3R*,4R*)-3-methyltetrahydro-2H-pyran-4-yl)-1H-pyrazolo[4,3-c]quinoline-4(5H)-one [Example 3a] | 200% | 58%
6.9 nM | (−)-7-(6-Methoxy-2,4-dimethylpyridin-3-yl)-1-((3R*,4S*)-3-methyltetrahydro-2H-pyran-4-yl)-1H-pyrazolo[4,3-c]quinoline-4(5H)-one [Example 1d] | 206% | 61%
5.8 nM | (−)-7-(2-Methoxy-3,5-dimethylpyridin-4-yl)-1-((3R*,4S*)-3-methyltetrahydro-2H-pyran-4-yl)-1H-pyrazolo[4,3-c]quinoline-4(5H)-one [Example 4a] |  | 
3.7 nM | COc1nc(C)cc(C)c1-c1ccc2c(c1)[nH]c(=O)c1cnn([C@@H]3CCOC[C@@H]3C)c12 (single isomer, unassigned) [Example 2b, (−)-7-(2-Methoxy-4,6-dimethylpyridin-3-yl)-1-((3R*,4R*)-3-methyltetrahydro-2H-pyran-4-yl)-1H-pyrazolo[4,3-c]quinoline-4(5H)-one] |  | 
1.3 nM | (−)-7-(2-Methoxy-4,6-dimethylpyridin-3-yl)-1-((3R*,4S*)-3-methyltetrahydro-2H-pyran-4-yl)-1H-pyrazolo[4,3-c]quinoline-4(5H)-one [Example 2d] | 183% | 23%
